Data on one compound can be found in patent publication US20050124618A1, “Methods of modulating angiogenesis and cancer cell proliferation” (priority 2003, published 2005).

Assay [1] concerns SAPK/JNK. In words: Western blot of phospho-SAPK/JNK in U251 cells. It is filed as cell-based, human. To be noted: 10 μM HET0016, 24 and 48 hr. The protocol: They were then pelleted by centrifugation at 1,000 g for 5 min at 4° C. Cells were lysed by adding RIPA buffer [20 mM HEPES (pH 7.4), 100 mM NaCl, 1% Nonidet P-40, 0.1% SDS, 1% deoxycholic acid, 10% glycerol, 1 mM EDTA, 1 mM NaVO3, 50 mM NaF, and Protease Inhibitors Set 1 (Calbiochem, La Jolla, Calif.)]. Plates were then scraped and cells collected in a 1.5-ml centrifuge tube, followed by incubation on ice for 30 min. Homogenates of the cell suspension were centrifuged for 10 min at 14,000 g and 4° C.; the pellets were discarded and protein concentrations in the supernatant determined by bicinchoninic acid (BCA) protein assay.
Typically, 20 μg of protein was separated on a 14% Tris-glycine gel (Invitrogen) and electroblotted on a PVDF membrane (Biotrace, Bothell, Wash.). Membranes were blocked for 1 h at room temperature with blocking buffer [0.2% I-Block reagent (Tropix, Bedford, Mass.), 0.1% Tween-20 in […]] before incubation with primary antibodies in blocking buffer (overnight at 4° C.). […] Both phospho-tyrosine (Y102) and phospho-serine/threonine-Pro MPM2 were detected using a 1:2000 dilution of the corresponding antibodies, whereas phospho-p44/p42MAPK and phospho-SAPK/JNK were detected using 1:1000 antibody dilutions. […]
A general note: In western blotting, separated proteins are transferred to a membrane and probed.

For assay [2], the system named is SAPK/JNK. In words: Western blot of phospho-SAPK/JNK in 9L cells. Format: cell-based, rat. To be noted: 10 μM HET0016; 4 hr, 24 hr, 48 hr. Here is the method: They were then pelleted by centrifugation at 1,000 g for 5 min at 4° C. The cells were lysed by adding RIPA buffer [20 mM HEPES (pH 7.4), 100 mM NaCl, 1% Nonidet P-40, 0.1% SDS, 1% deoxycholic acid, 10% glycerol, 1 mM EDTA, 1 mM NaVO3, 50 mM NaF, and protease inhibitors Set 1 (Calbiochem, La Jolla, Calif.)]. The plates were then scraped and the cells were collected in a 1.5-ml centrifuge tube, followed by incubation on ice for 30 min. The cell homogenates were centrifuged for 10 min at 14,000 g and 4° C.; the pellets were discarded and the protein concentrations in the supernatant determined by bicinchoninic acid (BCA) protein assay.
Typically, 20 μg of protein obtained from the cell homogenates was separated on a 14% Tris-glycine gel (Invitrogen) and transferred to a PVDF membrane (Biotrace, Bothell, Wash.). The membranes were blocked for 1 hr at room temperature with blocking buffer [0.2% I-Block reagent (Tropix, Bedford, Mass.), 0.1% Tween-20 in 1×PBS] and then incubated with the primary antibodies in blocking buffer overnight at 4° C. Phospho-p42/p44 MAPK (T202/Y204)(20G11), and phospho-SAPK/JNK (T183/Y185) (98F2) monoclonal antibodies were purchased from Upstate (Waltham, Mass.). […] Both phospho-p44/p42MAPK and phospho-SAPK/JNK were detected using 1:1000 antibody dilutions. […]

Assay [3] concerns 9L gliosarcoma tumors. Description: Growth of 9L gliosarcoma brain tumors in rats (tumor volume). It is filed as in vivo, rat. The protocol: Tumor Implantation: Before implantation, 90% confluent 9L cells were trypsinized and centrifuged. The cell pellet was resuspended in DMEM+10% FBS and counted using a hemocytometer. The concentration of the 9L cells was adjusted to 1×10^4 cells/5 μl of medium. p The brain tumors were seeded by injecting the 9L cell suspensions into the frontal cerebral cortex of Fisher 344 rats that were purchased from Charles River Laboratories (Wilmington, Mass.) as follows. The rats were anesthetized with ketamine (80 mg/Kg, im) and Xylazine (13 mg/Kg), the head was immobilized in a stereotactic frame (David Kopf Instruments, Tujunga, Calif.) and the skull was exposed. A small hole was drilled in the skull 2 mm lateral and 2.5 mm anterior of the bregma, and 5 μl of the 9L gliosarcoma cell suspension were injected 3.5 mm into to cerebral cortex over a 5 min period using a 10 μl Hamilton (#2701) syringe attached to a 26 gauge needle. The hole was sealed with bone wax and the incisions were closed. […] The brains were removed and stored in 10% formalin. […]
Images of H&E stained sections containing tumor were captured using a SONY CCD camera using 2× objective. Using the AIS Image Analysis System (Imaging Research, St. Catherine, ON, Canada) software, the area of tumor in each section was manually outlined and measured in mm^2. […]

For assay [4], the system named is 20-HETE. Conditions: cited from earlier work.

Entries after “also recorded” stand apart in the source; their conditions may differ.

On to `CCCCc1ccc(N=CNO)c(C)c1` [HET0016, N-hydroxy-N′-(4-butyl-2 methylphenyl) formamidine], for which the entries for the “phosphorylation of SAPK/JNK” value in assay [1] and in assay [2] were “specifically inhibited phosphorylation” and “decreases the phosphorylation; also recorded: significantly reduced the phosphorylation; also recorded: inhibition appears to peak at 48 hr”, respectively. Besides, the “reduction of the volume of the brain tumor compared to control animals” value in assay [3] (9L cells in rat forebrain, HET0016 10 mg/kg/day sc for 15 days, b179 prints 1 mg/Kg/day, ip, about 2 weeks) turned out to be 80%. For the same compound, the “appearance of rats and tumor size at necropsy” value in assay [3] (17 days after implantation of the tumor) was “looked healthier; also recorded: much smaller tumor at necropsy”. The “ability to reduce 20-HETE levels in vivo” value in assay [4] is recorded as “reduce 20-HETE levels in vivo”.
